Data reported in patent US20220151989A1, “LIPOIC ACID PRODRUG” (SANTEN PHARMACEUTICAL CO., LTD., priority 2019, published 2022).

Experiments:
[1] = test system: lens elasticity; experiment: Pharmacological Test-1: lens elasticity after instillation 3 times per day for 12 to 15 days; assay type: in vivo, C57BL/6J mice; settings: for Lens elasticity improvement: 0.03% (w/v) solution, 2.5 μL/eye, right eye, 3 times per day for 12 to 15 days, 8-month-old mice, vs vehicle control; for lens elasticity improving effect: at a concentration of 0.03%
Protocol: The effects of compounds 1 to 4 on the lens elasticity were examined. The tests were conducted with reference to the methods described in Invest Ophthalmol Vis Sci, 57, 2851-2863, 2016.
A vehicle (aqueous solution) comprising 0.1% (w/v) of ethyl pyruvate, 0.269% (w/v) of sodium dihydrogenphosphate monohydrate (NaH2PO4.H2O), 0.433% (w/v) of di sodium hydrogenphosphate (Na2HPO4), 0.2% (w/v) of hydroxypropyl methylcellulose, 0.5% (w/v) of NaCl, 1.0% (w/v) of polyoxyl 35 castor oil (hereinafter also referred to as “CO35”), and purified water (appropriate amount) was prepared.
Each of compounds 1 to 4 was stirred with the addition of the vehicle to give a 0.03% (w/v) solution.
EV06 was stirred with the addition of the vehicle to give a 0.03% (w/v) solution. (Test method) 1) Each test sample (2.5 μL/eye) was instilled into the right eye of 8-month-old C57BL/6J mice with a Pipetman 3 times per day (around 9:00, 13:00, 17:00) for 12 to 15 days. 2) After the final instillation, the mice were euthanized by carbon dioxide inhalation, and then the eyeballs were extracted and rinsed with Hank's balanced salt solution (HESS). 3) The sclera near the optic nerve was cut with a razor, the lens was removed through the incision, and the removed lens was immersed in HESS. 4) The lens was placed on a glass slide, and an all-in-one fluorescence microscope BZ-9000 (Keyence) was used to capture an image of the lens (Image a). 5) Next, one cover glass (Corning^registered trade mark) 22×22 mm Square) was placed on the lens, and an image in which the thickness of the lens changed due to the weight was similarly captured (Image b). 6) A change in the lens diameter was calculated from the following Equation 1 wherein the lens diameter of Image a is subtracted from the lens diameter of Image b. Then, the lens elasticity improvement of each sample group compared with the vehicle control group was calculated from Equation 2 described below. The mean value of the vehicle control group was based on 5 eyes, the mean value of each of the sample groups of compounds 1 to 4 was based on 10 eyes, and the mean value of EV06 sample group was based on 9 eyes.
(§1) Change in lens diameter=Lens diameter in Image b of each test sample−Lens diameter in Image a of each test sample (Equation 1)
(§2) Lens elasticity improvement of each sample group=Mean change in lens diameter of each Test sample group−Mean change in lens diameter of Vehicle control group (Equation 2)

[2] = test system: lens elasticity; experiment: Pharmacological Test-2: lens elasticity at different concentrations, instillation 3 times per day for 12 to 15 days; assay type: in vivo, C57BL/6J mice; settings: for Lens elasticity improvement: 3 times per day for 12 to 15 days, 7 to 8-month-old mice
Protocol: The effects of Compounds 1, 3, and 4 on the lens elasticity were investigated at different concentrations.
(§3) Vehicle A (aqueous solution) comprising 0.1% (w/v) of ethyl pyruvate, 0.269% (w/v) of sodium dihydrogenphosphate monohydrate (NaH2PO4.H2O), 0.433% (w/v) of disodium hydrogenphosphate (Na2HPO4), 0.2% (w/v) of hydroxypropyl methylcellulose, 0.5% (w/v) of NaCl, 0.2% (w/v) of 0035, and purified water (appropriate amount) was prepared.
as §3, with “B (emulsion)” for “A (aqueous solution)”, “CO35, 0.6% benzyl benzoate,” for “0035,”
as §3, with “Vehicle C” for “Vehicle A”, “NaCl, 1.0%” for “NaCl, 0.2%”
as §3, with “Vehicle D (emulsion)” for “Vehicle A (aqueous solution)”, “NaCl, 1.0%” for “NaCl, 0.2%”, “of CO35, 3.0% benzyl benzoate,” for “of 0035,”
A diluent (aqueous solution) comprising 0.1% (w/v) of ethyl pyruvate, 0.269% (w/v) of sodium dihydrogenphosphate monohydrate (NaH2PO4.H2O), 0.433% (w/v) of disodium hydrogenphosphate (Na2HPO4), 0.2% (w/v) of hydroxypropyl methylcellulose, 0.5% (w/v) of NaCl, and purified water (appropriate amount) was prepared.
Compound 1 was stirred with the addition of Vehicle C to prepare a 1.5% (w/v) emulsion, and the emulsion was diluted with the diluent to give a 0.3% (w/v) emulsion. Further, the resulting 0.3% (w/v) emulsion was diluted with the diluent to give a 0.03% (w/v) emulsion. Further, the resulting 0.03% (w/v) emulsion was diluted with the diluent to give a 0.003% (w/v) emulsion.
Compound 3 was stirred with the addition of Vehicle C to give a 1.5% (w/v) solution, and the resulting solution was diluted to give a 0.3% (w/v) solution. Further, the resulting 0.3% (w/v) solution was diluted with Vehicle A to give a 0.03% (w/v) solution. Further, the resulting 0.03% (w/v) solution was diluted with Vehicle A to give a 0.003% (w/v) solution.
Compound 4 was stirred with the addition of Vehicle D to give a 1.5% (w/v) emulsion, and the resulting emulsion was diluted with the diluent to prepare a 0.3% (w/v) emulsion. Further, the resulting 0.3% (w/v) emulsion was diluted with the diluent to give a 0.03% (w/v) emulsion. Further, the resulting 0.03% (w/v) emulsion was diluted with the diluent to give a 0.003% (w/v) emulsion.
EV06 was stirred with the addition of Vehicle A to give a 1.5% (w/v) solution, which was used for comparison to the samples of Compound 1 and 3.
EV06 was sonicated with the addition of Vehicle B to give a 1.5% (w/v) emulsion, which was used for comparison to Compound 4 sample.
(Test method) 1) Each test sample (2.5 μL/eye) was instilled into the right eye of 7 to 8-month-old C57BL/6J mice with a Pipetman 3 times per day (around 9:00, 13:00 and 17:00) for 12 to 15 days. 2) After the final instillation, the mice were euthanized by carbon dioxide inhalation, and then the eyeballs were extracted and rinsed with Hank's balanced salt solution (HESS). 3) The sclera near the optic nerve was cut with a razor, the lens was removed through the incision, and the removed lens was immersed in HESS. 4) The lens was placed on a glass slide, and an all-in-one fluorescence microscope BZ-9000 (Keyence) was used to capture an image of the lens (Image a). […]

[3] = test system: lens elasticity; experiment: Pharmacological Test-3: lens elasticity, Compounds 5 and 6, 3 times per day for 14 days; assay type: in vivo,  mice; settings: for Lens elasticity improvement: 0.03% (w/v) solution in Vehicle C, both eyes, 3 times per day for 14 days, 9-month-old mice; for lens elasticity improving effect: at a concentration of 0.03%
Protocol: The effects of Compounds 5 and 6 on the lens elasticity were investigated.
Compound 5 was stirred with the addition of Vehicle C to give a 0.03% (w/v) solution.
Compound 6 was stirred with the addition of Vehicle C to give a 0.03% (w/v) solution.
EV06 was stirred with the addition of Vehicle C to give a 0.03% (w/v) solution, which was used for comparison to the samples of Compounds 5 and 6.
1) Each test sample (2.5 μL/eye) was instilled into both eyes of 9-month-old […] mice with a Pipetman 3 times per day (around 9:00, 13:00 and 17:00) for 14 days. 2) After the final instillation, the mice were euthanized by carbon dioxide inhalation, and then the eyeballs were extracted and rinsed with Hank's balanced salt solution (HESS). 3) The sclera near the optic nerve was cut with a razor, the lens was removed through the incision, and the removed lens was immersed in HESS. 4) The lens was placed on a glass slide, and an all-in-one fluorescence microscope BZ-9000 (Keyence) was used to capture an image of the lens (Image a). 5) Next, one cover glass (Corning^(registered trade mark) 22×22 mm Square) was placed on the lens, and an image in which the thickness of the lens changed due to the weight was similarly captured (Image b). 6) A change in the lens diameter was calculated from the following Equation 1 wherein the lens diameter of Image a is subtracted from the lens diameter of Image b. Then, the lens elasticity improvement of each sample group compared with the vehicle control group was calculated from Equation 2 described below. The mean value of the vehicle control group was based on 8 eyes, and the mean value of each of the sample groups of Compounds 5 and 6 and EV06 was based on 10 eyes.
as §1, §2

Compound	Lens elasticity improvement [1] [μm]	lens elasticity improving effect [1]	Lens elasticity improvement ([2]; 0.003% (w/v) sample) [μm]	Lens elasticity improvement ([2]; 0.03% (w/v) sample) [μm]	lens elasticity improvement compared with 1.5% EV06 group ([2]; 0.03% and 0.3% sample groups)	Lens elasticity improvement ([2]; 0.3% (w/v) sample) [μm]	Lens elasticity improvement [3] [μm]	lens elasticity improving effect [3]
C[N+](C)(CCOC(=O)CCCC[C@@H]1CCSS1)Cc1ccccc1.[Cl-] [Compound 2, (R)-2-((5-(1,2-Dithiolan-3-yl)pentanoyl)oxy)-N-benzyl-N,N-dimethylethan-1-aminium chloride]	6.1	did not show lens elasticity improving effect						
O=C(CCCC[C@@H]1CCSS1)OCCN1CCOCC1 [Compound 4, 2-Morpholinoethyl (R)-5-(1,2-dithiolan-3-yl)pentanoate]	37.5	potent lens elasticity improving effect	25.0	56.5	equivalent to or better than 1.5% EV06 group	52.9		
Cc1ncc(COC(=O)CCCC[C@@H]2CCSS2)c2c1OC(C)(C)OC2 [Compound 6, (2,2,5-Trimethyl-4H-[1,3]dioxo[5,4-c]pyridin-8-yl)methyl (R)-5-(1,2-dithiolan-3-yl)pentanoate]							38.1	potent lens elasticity improving effect
O=C(CCCC[C@@H]1CCSS1)OC(CN1CCOCC1)CN1CCOCC1 [Compound 5, 1,3-Dimorpholinopropan-2-yl (R)-5-(1,2-dithiolan-3-yl)pentanoate]							40.7	potent lens elasticity improving effect
